Test results taken from patent US20240247252A1, “NOVEL COMPOUNDS FOR THE DEVELOPMENT OF REVERSIBLE COVALENT DRUGS” (The Trustees of Boston College, priority 2023, published 2024).
Positions of bridges follow the written chain, without caps; N, C: chain ends. Non-standard residues stand in square brackets, D forms with d. Residues, ends and D or L forms follow the SMILES beside them. *: point of attachment. X1 = O=Cc1ccccc1NCc1cc(C(=O)*)ccc1B(O)O; X2 = CC(=O)c1ccc(OCC(=O)*)cc1B(O)O; Dap = NC[C@H](N)C(=O)O

Tests used:
[1] = molecular target: T1, sortase A (SrtA) (Staphylococcus aureus, UniProt Q2FV99); assay: biochemical; type: binding
T1 sequence (Q2FV99 whole entry): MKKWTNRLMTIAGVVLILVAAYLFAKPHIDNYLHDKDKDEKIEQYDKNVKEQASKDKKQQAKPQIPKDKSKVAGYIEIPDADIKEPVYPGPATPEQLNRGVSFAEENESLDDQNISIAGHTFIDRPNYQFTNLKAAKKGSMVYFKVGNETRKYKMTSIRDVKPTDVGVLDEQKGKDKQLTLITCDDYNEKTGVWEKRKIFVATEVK
Method: For peptide conjugation, a —COOH derivative of RMR1 and 2-APBA was synthesized respectively. […] The resulting peptides were assessed for SrtA binding through a fluorescence polarization-based competition assay, in which a fluorophore labeled W7 (W7-F) was used as a reporter.

[2] = molecular target: T1, sortase A (SrtA); assay: SrtA binding kinetics, competition assay using W7-F as fluorescence reporter
Method: FIG. 1 illustrates reversible covalent inhibition of SrtA. […] The peptide's termini and the proximal lysine residues are labeled with the lysine ε-amines colored blue. […] FIG. 1(d) and FIG. 1(e) show SrtA binding kinetics of P3 and P5 recorded via a competition assay using W7-F as a fluorescence reporter.
Kinetic characterization of the P5-SrtA binding yielded a kon of 6.3 M^−1 s^−1, which is ˜300 times faster than the RMR1-lysine conjugation. The koff was determined to be 8.2×10^−6 s^−1, 4 times slower than the RMR1-lysine conjugation. The faster on-rate and slower off-rate are expected for the cooperative action between the covalent warhead and the W7 peptide that binds SrtA noncovalently.

[3] = tested on: SrtA on live S. aureus cells; assay: Long-lasting SrtA inhibition on S. aureus cells after washing away unbound inhibitor; type: cell-based, Staphylococcus aureus; conditions: unbound inhibitor washed away before substrate added, flow cytometry after 6 hours of incubation
Method: To test this hypothesis, the S. aureus cells was treated with P5 and then the unbound inhibitor was washed away before the fluorescent SrtA substrate was added. The S. aureus cells were subjected to flow cytometry analysis after 6 hours of incubation.

[4] = tested on: SrtA on live S. aureus cells; assay: SrtA inhibition on live S. aureus cells, labeling by fluorescent SrtA substrate FAM-GSLPETGGS, flow cytometry; type: cell-based, Staphylococcus aureus; conditions: live S. aureus in LB media, read-out: IC50 of SrtA-mediated fluorescence labeling
Method: The peptides for SrtA inhibition on live S. aureus cells was further tested. A fluorescently labeled SrtA substrate (FAM-GSLPETGGS) was mixed with S. aureus in LB media with or without a peptide inhibitor. The SrtA-mediated bacterial labeling was assessed using fluorescence microscopy and flow cytometry.

With `CC[C@H](C)[C@@H]1NC(=O)[C@H](CC(C)C)NC(=O)[C@@H](NC(=O)[C@H](C)NC(C)=O)CSSC[C@@H](C(=O)NCC(=O)NCC(=O)NCC(=O)N[C@@H](CNC(=O)c2ccc(B(O)O)c(CNc3ccccc3C=O)c2)C(N)=O)NC(=O)CNC(=O)CNC(=O)[C@H](Cc2c[nH]c3ccccc23)NC(=O)[C@H]([C@@H](C)O)NC(=O)[C@@H]2CCCN2C1=O` [Compound P5] (Ac-ACLIPTWGGCGGG[Dap](X1)-NH2; disulfide 2-10) the IC50 [1] was 1.3 µM, the koff [2] was 8.2e-06 s⁻¹ and the “koff, times slower than the RMR1-lysine conjugation” value [2] was 4 times. For the same molecule, the kon [2] was 6.3 M⁻¹ s⁻¹ and the “kon, times faster than the RMR1-lysine conjugation” value [2] was about 300 times.
Molecule `CC[C@H](C)[C@@H]1NC(=O)[C@H](CC(C)C)NC(=O)[C@@H](NC(=O)[C@H](C)NC(=O)CNC(=O)CNC(=O)CNC(=O)c2ccc(B(O)O)c(CNc3ccccc3C=O)c2)CSSC[C@@H](C(N)=O)NC(=O)CNC(=O)CNC(=O)[C@H](Cc2c[nH]c3ccccc23)NC(=O)[C@H]([C@@H](C)O)NC(=O)[C@@H]2CCCN2C1=O` [Compound P8] (X1-GGGACLIPTWGGC-NH2; disulfide 5-13) has an IC50 [1] of 3.8 µM.
`CC[C@H](C)[C@@H]1NC(=O)[C@H](CC(C)C)NC(=O)[C@@H](NC(=O)[C@H](C)N)CSSC[C@@H](C(=O)NCC(=O)NCC(=O)NCC(=O)N[C@@H](CNC(=O)COc2ccc(C(C)=O)c(B(O)O)c2)C(N)=O)NC(=O)CNC(=O)CNC(=O)[C@H](Cc2c[nH]c3ccccc23)NC(=O)[C@H]([C@@H](C)O)NC(=O)[C@@H]2CCCN2C1=O` [Compound P3] (H-ACLIPTWGGCGGG[Dap](X2)-NH2; disulfide 2-10) was tested, and the IC50 [1] was 4.6 µM, the “inhibition of SrtA-mediated fluorescence labeling after washing” value [3] was “marginal reduction” and the IC50 [4] was 3.7 µM. The “SrtA binding kinetics in words” value [2] was “reached equilibrium instantaneously”.
`CC[C@H](C)[C@@H]1NC(=O)[C@H](CC(C)C)NC(=O)[C@@H](NC(=O)[C@H](C)N)CSSC[C@@H](C(N)=O)NC(=O)CNC(=O)CNC(=O)[C@H](Cc2c[nH]c3ccccc23)NC(=O)[C@H]([C@@H](C)O)NC(=O)[C@@H]2CCCN2C1=O` [Compound W7] (H-ACLIPTWGGC-NH2; disulfide 2-10) showed an IC50 [1] of 17 µM.
With `CC[C@H](C)[C@@H]1NC(=O)[C@H](CC(C)C)NC(=O)[C@@H](NC(=O)[C@H](C)NC(=O)CNC(=O)CNC(=O)CNC(=O)COc2ccc(C(C)=O)c(B(O)O)c2)CSSC[C@@H](C(N)=O)NC(=O)CNC(=O)CNC(=O)[C@H](Cc2c[nH]c3ccccc23)NC(=O)[C@H]([C@@H](C)O)NC(=O)[C@@H]2CCCN2C1=O` [Compound P7] (X2-GGGACLIPTWGGC-NH2; disulfide 5-13) the IC50 [1] was 4.5 µM.
